Source: article PMC12221116, “Novel Quinazolinones Active against Multidrug‐Resistant Mycobacterium Tuberculosis: Synthesis, Antimicrobial Evaluation, and in Silico Exploration of Penicillin‐Binding Protein 1A as a Potential Target” (Chemmedchem, 2025)
pIC50: −log10 of the molar value. Converted amounts (≈) assume the structure as drawn. Read-outs that look alike come from different tables or passages of the source.

How the values were obtained:
M. kansasii = assay: Microplate Alamar Blue assay, MIC; assay type: cell-based, Mycobacterium kansasii; details: Mycobacterium kansasii; read-out: Antimycobacterial Activity MIC M. kans.
Bacteria, incl. SA = assay: Antibacterial microdilution screening (eight strains); assay type: cell-based; details: read after 24 and 48 h, highest tested concentration 500 μM
M. aurum = assay: Microdilution broth resazurin assay, MIC; assay type: cell-based, Mycolicibacterium aurum; details: Mycolicibacterium aurum; read-out: Antimycobacterial Activity MIC M. aurum
Fungi = assay: Antifungal microdilution screening (eight strains); assay type: cell-based; details: read after 24 and 48 h (72 and 120 h for TI), highest tested concentration 500 μM
Mtb H37Ra = assay: Microdilution broth resazurin assay, MIC; assay type: cell-based, Mycobacterium tuberculosis; details: Mycobacterium tuberculosis, H37RA
Mtb H37Rv = assay: Microplate Alamar Blue assay, MIC; assay type: cell-based, Mycobacterium tuberculosis; details: Mycobacterium tuberculosis, H37RV
MDR Mtb H37Rv = assay: microbe, parasite or virus in culture; assay type: cell-based; details: Mycobacterium tuberculosis, read-out: MIC MDR Mtb H37Rv
M. avium = assay: Microdilution broth resazurin assay, MIC; assay type: cell-based, Mycobacterium avium; details: Mycobacterium avium; read-out: Antimycobacterial Activity MIC M. avium
M. smegmatis = assay: Microdilution broth resazurin assay, MIC; assay type: cell-based, Mycolicibacterium smegmatis
HepG2 [1] = assay: cells; details: Homo sapiens
MRC-5 [2] = assay: cells; details: Homo sapiens
HepG2 [3] = details: HepG2
MRC-5 [4] = details: MRC-5
[5] = test system: Aspergillus fumigatus ATCC 204305; assay: Antifungal microdilution broth, quality standards; assay type: cell-based; details: ATCC204305, 48 h; for MIC: read-out: MIC, visual detection, Aspergillus fumigatus
[6] = test system: Candida tropicalis ATCC 750, CCM 8264; assay: Antifungal microdilution broth, quality standards; assay type: cell-based; details: 24 h; for MIC: read-out: MIC, visual detection, Candida tropicalis
[7] = test system: Candida albicans ATCC 24433, CCM 8320; assay: Antifungal microdilution broth, quality standards; assay type: cell-based; details: 24 h
[8] = test system: Candida parapsilosis ATCC 22019, CCM 8260; assay: Antifungal microdilution broth, quality standards; assay type: cell-based
[9] = test system: Candida krusei ATCC 6258, CCM 8271; assay: Antifungal microdilution broth, quality standards; assay type: cell-based
[10] = test system: Aspergillus flavus CCM 8363; assay: Antifungal microdilution broth, quality standards; assay type: cell-based; details: CCM8363, 48 h; for MIC: read-out: MIC, visual detection, Aspergillus flavus
[11] = test system: Trichophyton interdigitale ATCC 9533, CCM 8377; assay: Antifungal microdilution broth, quality standards; assay type: cell-based; details: 120 h; for MIC: read-out: MIC, visual detection, Trichophyton interdigitale
[12] = test system: Lichtheimia corymbifera CCM 8077; assay: Antifungal microdilution broth, quality standards; assay type: cell-based; details: CCM8077, 48 h; for MIC: read-out: MIC, visual detection, Lichtheimia corymbifera
[13] = test system: Staphylococcus aureus subsp. aureus ATCC 29213, CCM 4223; assay: Antibacterial microdilution broth, quality standards; assay type: cell-based; details: 24 h
[14] = test system: Pseudomonas aeruginosa ATCC 27853, CCM 3955; assay: as above; assay type: cell-based; details: 24 h
[15] = test system: Escherichia coli ATCC 25922, CCM 3954; assay: as above; assay type: cell-based; details: 24 h
[16] = test system: Enterococcus faecalis ATCC 29212, CCM 4224; assay: as above; assay type: cell-based; details: 24 h
[17] = test system: Staphylococcus aureus subsp. aureus, MRSA ATCC 43300, CCM 4750; assay: as above; assay type: cell-based; details: 24 h
[18] = test system: Acinetobacter baumannii ATCC 19606, DSM 30007; assay: as above; assay type: cell-based; details: 24 h
[19] = test system: Staphylococcus epidermidis ATCC 12228, CCM 4418; assay: as above; assay type: cell-based; details: 24 h
[20] = test system: Klebsiella pneumoniae ATCC 10031, CCM 4415; assay: as above; assay type: cell-based; details: 24 h
[21] = calculated from the measured MIC in mass concentration units, read-out: MIC Mtb H37Ra
[22] = read-out: Antimycobacterial Activity MIC Mtb H37Ra
[23] = Microplate Alamar Blue assay, read-out: Antimycobacterial Activity MIC Mtb H37Rv
[24] = calculated from the measured MIC in mass concentration units, read-out: MIC Mtb H37Rv
[25] = HepG2, 24 h, read-out: IC50 for HepG2 [24 h]
[26] = MRC5, 24 h, read-out: IC50 for MRC-5 [24 h]

Cc1nc2cc(Cl)ccc2c(=O)n1Cc1ccc(F)cc1 [Compound 19]
MIC (M. kansasii): > 100 µg/mL
MIC Bacteria, incl. SA (Bacteria, incl. SA): inactive
MIC (M. aurum): 31.2 µg/mL (≈ 103 µM)
MIC Fungi (Fungi): inactive
MIC (Mtb H37Ra; [21]): 26 µM
MIC (Mtb H37Ra; [22]): 7.81 µg/mL
MIC (Mtb H37Rv; [23]): 25 µg/mL
MIC (Mtb H37Rv; [24]): 83 µM
MIC (MDR Mtb H37Rv): 41 to 165 µM (≈ 12.4 to 50 µg/mL)
MIC (M. avium): 15.6 µg/mL (≈ 51.6 µM)
MIC (M. smegmatis; Mycolicibacterium smegmatis; read-out: Antimycobacterial Activity MIC M. smeg.): 31.2 µg/mL (≈ 103 µM)
pIC50 (HepG2 [1]; [25]): < 4.30
pIC50 (HepG2 [1]; HepG2, 72 h, read-out: IC50 for HepG2 [72 h]): < 4.30
pIC50 (MRC-5 [2]; [26]): < 4.00
pIC50 (MRC-5 [2]; MRC5, 72 h, read-out: IC50 for MRC-5 [72 h]): < 4.00

Cc1nc2cc(Cl)ccc2c(=O)n1/N=C/c1ccc(O)c([N+](=O)[O-])c1 [Compound 25]
MIC (M. kansasii): > 100 µg/mL
MIC Bacteria, incl. SA (Bacteria, incl. SA): inactive
MIC (M. aurum): ≥ 62.5 µg/mL
MIC Fungi (Fungi): inactive
MIC (Mtb H37Ra; [21]): 87 µM
MIC (Mtb H37Ra; [22]): 31.2 µg/mL
MIC (Mtb H37Rv; [23]): 12.5 µg/mL
MIC (Mtb H37Rv; [24]): 35 µM
MIC (MDR Mtb H37Rv): 17 to 70 µM (≈ 6.1 to 25.1 µg/mL)
MIC (M. avium): 62.5 µg/mL (≈ 174 µM)
MIC (M. smegmatis; Mycolicibacterium smegmatis, read-out: Antimycobacterial Activity MIC M. smeg.): 31.2 µg/mL (≈ 87.1 µM)
nontoxic for human cell lines up to (HepG2 [3]): up to 1000 μM
nontoxic for human cell lines up to (MRC-5 [4]): up to 1000 μM
pIC50 (HepG2 [1]; [25]): < 3.00
pIC50 (MRC-5 [2]; [26]): < 3.00

C[C@@H]1[C@H](O)[C@@H](C)/C=C/C=C/C=C/C=C/C=C/C=C/C=C/[C@H](O[C@@H]2O[C@H](C)[C@@H](O)[C@H](N)[C@@H]2O)C[C@@H]2O[C@](O)(C[C@@H](O)C[C@@H](O)[C@H](O)CC[C@@H](O)C[C@@H](O)CC(=O)O[C@H]1C)C[C@H](O)[C@H]2C(=O)O [amphotericin B]
IC90 ([5]; read-out: IC90, spectrophotometric detection, Aspergillus fumigatus): 1 µg/mL (≈ 1.08 µM)
MIC [5]: 1 µg/mL (≈ 1.08 µM)
IC90 ([6]; read-out: IC90, spectrophotometric detection, Candida tropicalis): 1 µg/mL (≈ 1.08 µM)
MIC [6]: 1 µg/mL (≈ 1.08 µM)
IC90 ([7]; read-out: IC90, spectrophotometric detection, Candida albicans): 0.5 µg/mL (≈ 0.541 µM)
IC90 ([8]; Lodderomyces parapsilosis, 24 h; read-out: IC90, spectrophotometric detection, Candida parapsilosis): 0.5 µg/mL (≈ 0.541 µM)
MIC ([8]; Lodderomyces parapsilosis, 24 h; read-out: MIC, visual detection, Candida parapsilosis): 0.5 µg/mL (≈ 0.541 µM)
IC90 ([9]; Pichia kudriavzevii, 24 h; read-out: IC90, spectrophotometric detection, Candida krusei): 1 µg/mL (≈ 1.08 µM)
MIC ([9]; Pichia kudriavzevii, 24 h; read-out: MIC, visual detection, Candida krusei): 1 µg/mL (≈ 1.08 µM)
IC90 ([10]; read-out: IC90, spectrophotometric detection, Aspergillus flavus): 8 µg/mL (≈ 8.66 µM)
MIC [10]: 8 µg/mL (≈ 8.66 µM)
IC90 ([11]; 26 °C, read-out: IC90, spectrophotometric detection, Trichophyton interdigitale): 2 µg/mL (≈ 2.16 µM)
MIC ([11]; 26 °C): 2 µg/mL (≈ 2.16 µM)
IC90 ([12]; read-out: IC90, spectrophotometric detection, Lichtheimia corymbifera): 0.5 µg/mL (≈ 0.541 µM)
MIC [12]: 0.5 µg/mL (≈ 0.541 µM)

CNC(C)C1CCC(N)C(OC2C(N)CC(N)C(OC3OCC(C)(O)C(NC)C3O)C2O)O1 (stereo not drawn) [gentamicin]
MIC ([13]; 95% growth inhibition, read-out: MIC spectrophotometric detection, S. aureus): 1 µg/mL (≈ 2.09 µM)
MIC ([13]; naked eye, read-out: MIC visual detection, S. aureus): 1 µg/mL (≈ 2.09 µM)
MIC ([14]; 95% growth inhibition, read-out: MIC spectrophotometric detection, P. aeruginosa): 0.5 µg/mL (≈ 1.05 µM)
MIC ([14]; naked eye, read-out: MIC visual detection, P. aeruginosa): 0.5 µg/mL (≈ 1.05 µM)
MIC ([15]; 95% growth inhibition, read-out: MIC spectrophotometric detection, E. coli): 1 to 2 µg/mL (≈ 2.09 to 4.19 µM)
MIC ([15]; naked eye, read-out: MIC visual detection, E. coli): 1 to 2 µg/mL (≈ 2.09 to 4.19 µM)
MIC ([16]; read-out: MIC spectrophotometric detection, E. faecalis): 16 µg/mL (≈ 33.5 µM)
MIC ([16]; naked eye, read-out: MIC visual detection, E. faecalis): 8 µg/mL (≈ 16.8 µM)
MIC ([17]; 95% growth inhibition, read-out: MIC spectrophotometric detection, MRSA): 16 to 32 µg/mL (≈ 33.5 to 67 µM)
MIC ([17]; naked eye, read-out: MIC visual detection, MRSA): 16 to 32 µg/mL (≈ 33.5 to 67 µM)
MIC ([18]; 95% growth inhibition, read-out: MIC spectrophotometric detection, A. baumannii): 2 µg/mL (≈ 4.19 µM)
MIC ([18]; naked eye, read-out: MIC visual detection, A. baumannii): 2 µg/mL (≈ 4.19 µM)
MIC ([19]; 95% growth inhibition, read-out: MIC spectrophotometric detection, S. epidermidis): > 8 µg/mL
MIC ([19]; naked eye, read-out: MIC visual detection, S. epidermidis): > 8 µg/mL
MIC ([20]; 95% growth inhibition, read-out: MIC spectrophotometric detection, K. pneumoniae): > 8 µg/mL
MIC ([20]; naked eye, read-out: MIC visual detection, K. pneumoniae): > 8 µg/mL

C[C@@H](c1ncncc1F)[C@](O)(Cn1cncn1)c1ccc(F)cc1F [voriconazole]
IC50 ([5]; read-out: IC50, spectrophotometric detection, Aspergillus fumigatus): 0.5 µg/mL (≈ 1.43 µM)
MIC [5]: 1 µg/mL (≈ 2.86 µM)
MIC [6]: > 16 µg/mL
IC50 ([7]; read-out: IC50, spectrophotometric detection, Candida albicans): 0.03 µg/mL (≈ 0.0859 µM)
MIC ([7]; read-out: MIC, visual detection, Candida albicans): > 16 µg/mL
IC50 ([8]; Lodderomyces parapsilosis, 24 h, read-out: IC50, spectrophotometric detection, Candida parapsilosis): 0.03 µg/mL (≈ 0.0859 µM)
MIC ([8]; Lodderomyces parapsilosis, 24 h, read-out: MIC, visual detection, Candida parapsilosis): 8 µg/mL (≈ 22.9 µM)
MIC ([9]; Pichia kudriavzevii, 24 h, read-out: MIC, visual detection, Candida krusei): 0.5 µg/mL (≈ 1.43 µM)
IC50 ([10]; read-out: IC50, spectrophotometric detection, Aspergillus flavus): 4 µg/mL (≈ 11.5 µM)
MIC [10]: > 16 µg/mL
IC50 ([11]; read-out: IC50, spectrophotometric detection, Trichophyton interdigitale): > 16 µg/mL
MIC [11]: > 16 µg/mL
IC50 ([12]; read-out: IC50, spectrophotometric detection, Lichtheimia corymbifera): > 16 µg/mL
MIC [12]: > 16 µg/mL
